# Data from patent US7943636B2 (dated 2011).
row,SMILES,melting point
1,CCn1nc2c(N)nc3ccccc3c2c1CC1(O)CCOCC1,253 to 255 °C
2,CCn1nc2c(N)nc3ccccc3c2c1CC1(O)CCCCC1,211.5 to 213 °C
3,CCn1nc2c(N)nc3ccccc3c2c1CC1(O)CCN(C(C)=O)CC1,231 to 232.5 °C
4,CCCNC(=O)N1CCC(O)(Cc2c3c(nn2CC)c(N)nc2ccccc23)CC1,208.5 to 210 °C
5,CCn1nc2c(N)nc3ccccc3c2c1CC1CCOCC1,226 to 228 °C
6,CCn1nc2c(N)nc3c(c2c1CC1(O)CCCCC1)CCCC3,232 to 234 °C
7,Cn1nc2c(N)nc3ccccc3c2c1CC1(F)CCN(S(C)(=O)=O)CC1,283 to 285 °C
8,CC(=O)N1CCC(F)(Cc2c3c(nn2C)c(N)nc2ccccc23)CC1,241 to 243 °C
9,CCn1nc2c(N)nc3ccccc3c2c1CC1(F)CCN(S(C)(=O)=O)CC1,269 to 271 °C
10,CCn1nc2c(N)nc3ccccc3c2c1CC1(F)CCN(C(=O)NC(C)C)CC1,205 to 207 °C
11,CCCn1nc2c(N)nc3ccccc3c2c1CC1(F)CCN(S(C)(=O)=O)CC1,268 to 270 °C (dec.)
12,CCCn1nc2c(N)nc3ccccc3c2c1CC1(F)CCN(C(=O)NC(C)C)CC1,227 to 229 °C (dec.)
13,CCCn1nc2c(N)nc3ccccc3c2c1CC1CCOCC1,218 to 220 °C
14,CCCn1nc2c(N)nc3ncccc3c2c1CC1CCOCC1,252 to 255 °C
15,COCCn1nc2c(N)nc3ccccc3c2c1CC1CCOCC1,189 to 190 °C
16,COCCn1nc2c(N)nc3ncccc3c2c1CC1CCOCC1,230 to 233 °C
17,CCn1nc2c(N)nc3ccccc3c2c1CC1(F)CCOCC1,275 to 277 °C

# Results, then the compound that gave them:
row,melting point,SMILES
1,191 to 193 °C,CCCn1nc2c(N)nc3ccccc3c2c1CC1(O)CCC1
2,256 to 259 °C,CCn1nc2c(N)nc3ccccc3c2c1CC1(O)CCCC1
3,245 to 247 °C,CCn1nc2c(N)nc3ccccc3c2c1CC1(O)CCC1
4,251.5 to 255 °C,CCn1nc2c(N)nc3ccccc3c2c1CC1(O)CCSCC1
5,268 to 270 °C,CCn1nc2c(N)nc3ccccc3c2c1CC1(O)CCN(S(C)(=O)=O)CC1
6,209 to 211 °C,CCCn1nc2c(N)nc3ccccc3c2c1CC1(O)CCOCC1
7,241 to 244 °C,CC(C)NC(=O)N1CCC(F)(Cc2c3c(nn2C)c(N)nc2ccccc23)CC1
8,228 to 230 °C,CCn1nc2c(N)nc3ccccc3c2c1CC1(F)CCN(C(C)=O)CC1
9,252 to 254 °C,Cn1nc2c(N)nc3ccccc3c2c1CC1(F)CCOCC1
10,260 to 262 °C (dec.),Cn1nc2c(N)nc3ccccc3c2c1CC1(O)CCOCC1
